Test results: paper PMC13308190, “Endothelial progenitor cell susceptibility to DNA damaging and DDR-modulating compounds determines endothelial differentiation accuracy” (Stem Cell Research & Therapy, 2026)

Legend:
Assay type in all cases: cell-based, mouse
[1] = test system: EC d4; experiment: DNA fiber spreading assay; details: EC d4 48 h; HU: 5 mM, 1 h
Experimental: (§1) To analyze DNA replication fork progression, the DNA fiber spreading assay was performed. Briefly, cells were pulse-labeled with 20 µM CldU (20 min, 37 °C, 5% C0_2) and immediately afterwards with 200 µM IdU (20 min, 37 °C, 5% C02). Cell suspension was applied onto glass slides followed by cell lysis (0.5% SDS, 200 mM Tris–HCl, 50 mM EDTA). After incubation (6 min, RT), slides were tilted upwards to stretch the fibers, dried 6 min lying horizontally flat and fixed (5 min, RT) in methanol: acetic acid (3:1). After drying (7 min, lying horizontally flat) slides were stored overnight in 70% ethanol (4 °C). The next day samples were incubated in 100% methanol (5 min, RT) followed by denaturation in 2.5 M HCl (1 h, RT) and blocking (5% BSA in PBS, 1 h, 37 °C). DNA Fibers were stained with rat anti-BrdU (1:40) for CldU detection and mouse anti-BrdU (1:70) for IdU detection (in 0.5% BSA/PBS; 1 h, RT). After washing (0.05% Tween 20 in PBS and PBS) incubation with secondary antibodies anti-rat 488 (1:400) and anti-mouse 555 (1:250) was performed (1 h, RT, 0.5% BSA in PBS). Following washing with 0.05% Tween 20 in PBS and PBS, the slides were mounted with Fluoroshield (Sigma [Steinheim, Germany]). DNA fibers were analyzed microscopically (Olympus BX43 fluorescence microscope [40 objective]). The length of CldU (green) and IdU (red) tract was measured using ImageJ software, analyzing 200 fibers per experimental condition.

[2] = test system: mESC; experiment: DNA fiber spreading assay; details: mESC 24 h; HU: 5 mM, 1 h
Experimental: as §1

[3] = test system: EC d6; experiment: DNA fiber spreading assay; details: EC d6 24 h; HU: 5 mM, 1 h
Experimental: as §1

[4] = test system: EC d6 (endothelial-like cells); experiment: Western blot protein expression (densitometry); details: EC d6 24 h
Experimental: (§2) Total protein cell extracts were obtained upon sonication in RIPA buffer (EpiShearTM Probe sonicator, Active Motif [La Hulpe, Belgium]). Protein concentrations were determined using the DC Protein Assay (BioRad [Munich, Germany]). Extracts were supplemented with Roti®-Load buffer (Carl Roth GmbH [Karlsruhe, Germany]) followed by heating (95 °C for 5 min). 20 µg of protein was separated by SDS-PAGE and transferred onto nitrocellulose membrane. After blocking (5% non-fat milk in TBS/0.1% Tween 20 or 5% BSA in TBS/0.1% Tween 20) (1 h, RT) membrane was incubated with primary antibodies (1:500–5000; overnight, 4 °C). After washing with TBS/0.1% Tween 20, peroxidase-conjugated secondary antibody (1:2000) was added (2 h, RT) and bands were visualized using ChemiDoxTM Touch imaging system (BioRad, Munich, Germany).

[5] = test system: EC d4 (endothelial progenitor cells); experiment: Western blot protein expression (densitometry); details: EC d4 48 h
Experimental: as §2

[6] = test system: mESC; experiment: Western blot protein expression (densitometry); details: mESC 24 h
Experimental: as §2

## NC(=O)NO [HU, Hydroxyurea]
[1]
  replication fork progression: decreased replication fork speed
[2]
  replication fork progression: decreased replication fork speed
[3]
  replication fork progression: decreased replication fork speed

## COc1cc([C@@H]2c3cc4c(cc3[C@@H](O[C@@H]3O[C@@H]5CO[C@@H](C)O[C@H]5[C@H](O)[C@H]3O)[C@H]3COC(=O)[C@H]23)OCO4)cc(OC)c1O [Eto, etoposide]
[4]; Eto lane of blot Fig 5D - B02
  CHK1 protein: 0.37 Fold of mESC
  RAD51 protein: 0.38 Fold of mESC
  p-CHK2 protein: 0.04 Fold of mESC
  p-KAP1 protein: 0.00 Fold of mESC
  p-RPA32 protein: 0.04 Fold of mESC
  p-p53 protein: 1.45 Fold of mESC
[4]; Eto lane of blot Fig 5D - Dox
  CHK1 protein: 0.6 Fold of mESC
  RAD51 protein: 0.8 Fold of mESC
  p-CHK2 protein: 0.2 Fold of mESC
  p-KAP1 protein: 0.0 Fold of mESC
  p-RPA32 protein: 0.1 Fold of mESC
  p-p53 protein: 3.7 Fold of mESC
[4]; Eto lane of blot Fig 5D - EST
  CHK1 protein: 0.1 Fold of mESC
  RAD51 protein: 0.5 Fold of mESC
  p-CHK2 protein: 0.4 Fold of mESC
  p-KAP1 protein: 0.0 Fold of mESC
  p-RPA32 protein: < 0.1 Fold of mESC
  p-p53 protein: 2.0 Fold of mESC
[5]; Eto lane of blot Fig 5D - B02
  CHK1 protein: 0.7 Fold of mESC
  RAD51 protein: 1.0 Fold of mESC
  p-CHK2 protein: 0.4 Fold of mESC
  p-KAP1 protein: 0.0 Fold of mESC
  p-RPA32 protein: 0.4 Fold of mESC
  p-p53 protein: 1.7 Fold of mESC
[5]; Eto lane of blot Fig 5D - Dox
  CHK1 protein: 1.6 Fold of mESC
  RAD51 protein: 0.1 Fold of mESC
  p-CHK2 protein: 0.5 Fold of mESC
  p-KAP1 protein: 0.0 Fold of mESC
  p-RPA32 protein: 0.5 Fold of mESC
  p-p53 protein: 4.8 Fold of mESC
[5]; Eto lane of blot Fig 5D - EST
  CHK1 protein: 0.7 Fold of mESC
  RAD51 protein: 1.2 Fold of mESC
  p-CHK2 protein: 1.2 Fold of mESC
  p-KAP1 protein: 0.0 Fold of mESC
  p-RPA32 protein: 0.4 Fold of mESC
  p-p53 protein: 3.0 Fold of mESC
[6]; Eto lane of blot Fig 5D - B02
  CHK1 protein: 0.9 Fold of mESC
  RAD51 protein: 1.9 Fold of mESC
  p-CHK2 protein: 0.8 Fold of mESC
  p-KAP1 protein: 49.01 Fold of mESC
  p-RPA32 protein: 0.7 Fold of mESC
  p-p53 protein: 2.1 Fold of mESC
[6]; Eto lane of blot Fig 5D - Dox
  CHK1 protein: 2.4 Fold of mESC
  RAD51 protein: 1.9 Fold of mESC
  p-CHK2 protein: 1.6 Fold of mESC
  p-KAP1 protein: 29.7 Fold of mESC
  p-RPA32 protein: 1.6 Fold of mESC
  p-p53 protein: 6.9 Fold of mESC
[6]; Eto lane of blot Fig 5D - EST
  CHK1 protein: 1.3 Fold of mESC
  RAD51 protein: 2.4 Fold of mESC
  p-CHK2 protein: 1.3 Fold of mESC
  p-KAP1 protein: 36.8 Fold of mESC
  p-RPA32 protein: 1.0 Fold of mESC
  p-p53 protein: 3.7 Fold of mESC
[6]; Fig 4H, Eto, Dox 1, B02, EST
  CHK1 protein: 1.0 Fold of mESC
  p-ATR protein: 1.6 Fold of mESC
  p-CHK1 protein: 2.3 Fold of mESC
  p-RPA32 protein: 1.2 Fold of mESC
  p-p53 protein: 6.1 Fold of mESC
